Source: the NIST ThermoML archive (doi:10.1021/je900293j)
± gives the expanded uncertainty stated by the source.

Settings: Transpiration method

Compound | vapor or sublimation pressure (283.15 K, Liquid) [kPa] | vapor or sublimation pressure (293.15 K, Liquid) [kPa] | vapor or sublimation pressure (303.15 K, Liquid) [kPa] | vapor or sublimation pressure (313.15 K, Liquid) [kPa] | vapor or sublimation pressure (283.15 K, Crystal) [kPa] | vapor or sublimation pressure (293.15 K, Crystal) [kPa] | vapor or sublimation pressure (303.15 K, Crystal) [kPa] | vapor or sublimation pressure (313.15 K, Crystal) [kPa]
CCCCCCCCCCCCCC [tetradecane] | 0.000427 ± 1.7e-05 | 0.00121 ± 5e-05 | 0.00322 ± 0.00013 | 0.0081 ± 0.00031 |  |  |  | 
Cc1cccc([N+](=O)[O-])c1 [3-nitrotoluene] |  | 0.00855 ± 0.0012 | 0.0195 ± 0.0028 | 0.0378 ± 0.0055 | 0.00339 ± 0.00049 |  |  | 
Cc1ccccc1[N+](=O)[O-] [2-nitrotoluene] | 0.00553 ± 0.0008 | 0.0127 ± 0.0018 | 0.0297 ± 0.0043 | 0.0611 ± 0.0088 |  |  |  | 
Cc1ccc([N+](=O)[O-])cc1 [1-methyl-4-nitrobenzene] |  |  |  |  | 0.00125 ± 0.00018 | 0.00379 ± 0.00055 | 0.0102 ± 0.0015 | 0.0264 ± 0.0038
